Results from paper PMC12466757, “1,5-Diarylidene-4-Piperidones as Promising Antifungal Candidates Against Cryptococcus neoformans” (Antibiotics, 2025).
Converted amounts (≈) assume the structure as drawn.

How the values were obtained:
[1] = tested on: Cryptococcus neoformans (DSM11959); test: MIC assay against C. neoformans; assay type: cell-based; details: 35 °C, 24–48 h
[2] = tested on: various human cells, i.e., A498, BEAS-2B, Caco-2, HaCaT, and HepG2
in vitro = details: human, Caco-2
[3] = Cytotoxicity, resazurin cell viability assay, A498; details: human
[4] = Cytotoxicity, resazurin cell viability assay, HaCaT; details: human
[5] = Cytotoxicity, resazurin cell viability assay, HepG2; details: human
[6] = Cytotoxicity, resazurin cell viability assay, Caco-2; details: human
[7] = Cytotoxicity, resazurin cell viability assay, BEAS-2B; details: human
[8] = tested on: Candida albicans (DSM 10697); test: MIC assay, pathogenic yeast C. albicans; assay type: cell-based; details: DSM10697, 35 °C, 24–48 h
[9] = tested on: Candida auris (DSM 21092); test: MIC assay, pathogenic yeast C. auris; assay type: cell-based; details: Candidozyma auris, DSM21092, 35 °C, 24–48 h
[10] = tested on: Candida glabrata (DSM 11226); test: MIC assay, pathogenic yeast C. glabrata; assay type: cell-based; details: Nakaseomyces glabratus, DSM11226, 35 °C, 24–48 h
[11] = tested on: Candida tropicalis (DSM 9419); test: MIC assay, pathogenic yeast C. tropicalis; assay type: cell-based; details: DSM9419, 35 °C, 24–48 h
[12] = tested on: Aspergillus flavus (DSM 1959); test: MIC assay, filamentous fungus A. flavus; assay type: cell-based; details: DSM1959, DSM 1959, plant pathogen, 25 °C, 48–72 h
A. fumigatus (DSM 819) = test: MIC assay, filamentous fungus A. fumigatus; assay type: cell-based; details: Aspergillus fumigatus, DSM819; DSM 819, human pathogen; 35 °C, 24–48 h
[13] = tested on: Colletotrichum graminicola (DSM 63127); test: MIC assay, filamentous fungus C. graminicola; assay type: cell-based; details: DSM63127, DSM 63127, plant pathogen, 25 °C, 48–72 h
[14] = tested on: Fusarium graminearum (DSM 1095); test: microbe, parasite or virus in culture; assay type: cell-based; details: DSM1095, read-out: MIC F. graminearum
Magnaporthe oryzae = test: microbe, parasite or virus in culture; assay type: cell-based; details: Pyricularia oryzae, read-out: MIC M. oryzae
[15] = tested on: Microdochium bolleyi (DSM 62073); test: MIC assay, filamentous fungus M. bolleyi; assay type: cell-based; details: DSM62073, DSM 62073, plant pathogen, 25 °C, 48–72 h
[16] = tested on: Penicillium verrucosum (DSM 12639); test: MIC assay, filamentous fungus P. verrucosum; assay type: cell-based; details: DSM12639, DSM 12639, plant pathogen, 25 °C, 48–72 h
[17] = tested on: Trichophyton rubrum (DSM16111); test: MIC assay, filamentous fungus T. rubrum; assay type: cell-based; details: DSM16111, human pathogen, 35 °C, 24–48 h
[18] = tested on: Acinetobacter baumannii (DSM 30007); test: Antibacterial liquid MIC determination, A. baumannii; assay type: cell-based; details: DSM30007, Gram-negative
[19] = tested on: Enterobacter cloacae (DSM 30054); test: Antibacterial liquid MIC determination, E. cloacae; assay type: cell-based; details: DSM30054, Gram-negative
[20] = tested on: Staphylococcus aureus (ATCC 6538); test: Antibacterial liquid MIC determination, S. aureus; assay type: cell-based; details: ATCC6538, Gram-positive
[21] = Cryptococcus neoformans, DSM11959, C. neoformans DSM 11959, lowest concentration totally inhibiting growth
[22] = C. neoformans DSM 11959, lowest concentration totally inhibiting growth

CCN1C/C(=C\c2ccc(OC)cc2)C(=O)/C(=C/c2ccc(OC)cc2)C1 [1a, 1-ethyl-3,5-bis((E)-4-methoxybenzylidene)piperidin-4-one]
MIC [1, 21]: 125 µM (≈ 45.4 µg/mL) | CC50 (range depending on the cell model) [2]: 64.9 to >1000 | CC50 at 48 h (in vitro): 314 µM

CCN1C/C(=C\c2ccc(C)cc2)C(=O)/C(=C/c2ccc(C)cc2)C1 [1b, 1-ethyl-3,5-bis((E)-4-methylbenzylidene)piperidin-4-one]
MIC [1, 21]: 250 µM (≈ 82.9 µg/mL) | CC50 at 48 h (in vitro): 86.2 µM

CCN1C/C(=C\c2ccc(C#N)cc2)C(=O)/C(=C/c2ccc(C#N)cc2)C1 [1c]
MIC [1, 21]: 250 µM (≈ 88.4 µg/mL) | CC50 at 48 h (in vitro): 70.3 µM

CCN1C/C(=C\c2ccc([N+](=O)[O-])cc2)C(=O)/C(=C/c2ccc([N+](=O)[O-])cc2)C1 [1d]
MIC [1, 21]: 250 µM (≈ 98.3 µg/mL) | CC50 at 48 h [3]: 486 µM | CC50 at 48 h [4]: 163 µM | CC50 at 48 h [5]: 314 µM | CC50 at 48 h [6]: 95.4 µM | CC50 at 48 h [7]: 364 µM

CCN1C/C(=C\c2ccc(Cl)cc2)C(=O)/C(=C/c2ccc(Cl)cc2)C1 [1e]
MIC [1, 21]: 250 µM (≈ 93.1 µg/mL) | CC50 at 48 h (in vitro): 98.6 µM

CCN1C/C(=C\c2ccc(C(F)(F)F)cc2)C(=O)/C(=C/c2ccc(C(F)(F)F)cc2)C1 [1f]
MIC [1, 21]: 250 µM (≈ 110 µg/mL) | CC50 at 48 h (in vitro): 47 µM

CCN1C/C(=C\c2ccc(OC)cc2OC)C(=O)/C(=C/c2ccc(OC)cc2OC)C1 [2a, 3,5-bis((E)-2,4-dimethoxybenzylidene)-1-ethylpiperidin-4-one]
MIC [1, 22]: >250 µM | MIC [1, 21]: > 250 µM

C=CCOc1ccc(/C=C2\CN(CC)C/C(=C\c3ccc(OCC=C)cc3OCC=C)C2=O)c(OCC=C)c1 [2g]
MIC [1, 22]: >250 µM | MIC [1, 21]: > 250 µM

CCCCOc1ccc(/C=C2\CN(CC)C/C(=C\c3ccc(OCCCC)cc3OCCCC)C2=O)c(OCCCC)c1 [2h, 3,5-bis((E)-2,4-dibutoxybenzylidene) -1-ethylpiperidin-4-one]
MIC [1, 21]: 31.2 µM (≈ 18.5 µg/mL) | MIC [8]: 250 µM (≈ 148 µg/mL) | MIC [9]: 31.2 µM (≈ 18.5 µg/mL) | MIC [10]: 31.2 µM (≈ 18.5 µg/mL) | MIC [11]: 250 µM (≈ 148 µg/mL) | MIC [12]: > 250 µM | MIC (A. fumigatus (DSM 819)): 125 µM (≈ 74 µg/mL) | MIC [13]: > 250 µM | MIC [14]: > 250 µM | MIC (Magnaporthe oryzae): 15.6 µM (≈ 9.23 µg/mL) | MIC [15]: 62.5 µM (≈ 37 µg/mL) | MIC [16]: 125 µM (≈ 74 µg/mL) | MIC [17]: 62.5 µM (≈ 37 µg/mL) | CC50 at 48 h (in vitro): 697 µM

CCN1C/C(=C\c2ccc3c(c2)OCO3)C(=O)/C(=C/c2ccc3c(c2)OCO3)C1 [2i]
MIC [1, 21]: 250 µM (≈ 97.9 µg/mL) | CC50 at 48 h (in vitro): 152 µM

CCN1C/C(=C\c2ccccc2F)C(=O)/C(=C/c2ccccc2F)C1 [2j]
MIC [1, 21]: 250 µM (≈ 84.8 µg/mL) | CC50 at 48 h (in vitro): 68.3 µM

CCN1C/C(=C\c2ccc[nH]2)C(=O)/C(=C/c2ccc[nH]2)C1 [2k]
MIC [1, 21]: 250 µM (≈ 70.3 µg/mL) | MIC [18]: 250 µM (≈ 70.3 µg/mL) | MIC [19]: 250 µM (≈ 70.3 µg/mL)

CCN1C/C(=C\c2cnc3ccccc3c2)C(=O)/C(=C/c2cnc3ccccc3c2)C1 [2l]
MIC [1, 21]: 250 µM (≈ 101 µg/mL) | MIC [20]: 250 µM (≈ 101 µg/mL) | CC50 at 48 h (in vitro): 30 µM

CCCCOc1ccc(/C=C2\CN(CC)C/C(=C\c3ccc(OCCCC)c(OCCCC)c3OCCCC)C2=O)c(OCCCC)c1OCCCC [2m]
MIC ([1]; Cryptococcus neoformans, DSM11959, C. neoformans DSM 11959, […]): 62.5 µM (≈ 46 µg/mL) | MIC [8]: 125 µM (≈ 92 µg/mL) | MIC [9]: 31.2 µM (≈ 23 µg/mL) | MIC [10]: 15.6 µM (≈ 11.5 µg/mL) | MIC [11]: 250 µM (≈ 184 µg/mL) | MIC [12]: > 250 µM | MIC (A. fumigatus (DSM 819)): 250 µM (≈ 184 µg/mL) | MIC [13]: > 250 µM | MIC [14]: > 250 µM | MIC (Magnaporthe oryzae): 62.5 µM (≈ 46 µg/mL) | MIC [15]: > 250 µM | MIC [16]: > 250 µM | MIC [17]: 31.2 µM (≈ 23 µg/mL) | CC50 at 48 h (in vitro): 687 µM
